Reference: patent US20020099070A1, “Dihydronaphthyridine potassium channel openers” (priority 2000, published 2002)

Key:
[1] = test system: Landrace pig bladder strips; assay: Functional potassium channel opening activity in isolated bladder strips (field-stimulated twitch); conditions: for Index: ED50 for P1075 divided by ED50 for test agonist, averaged over tissues; for EC50: Sus scrofa, read-out: pD2 (converted); for EC50 / pD2: negative logarithm of ED50; for Efficacy (% P1075): maximal efficacy relative to P1075, field stimulation 0.05 Hz, 0.5 ms, 20 volts
Experimental: Compounds were evaluated for functional potassium channel opening activity using tissue strips obtained from Landrace pig bladders.
Landrace pig bladders were obtained from female Landrace pigs of 9-30 kg. Landrace pigs were euthanized with an intraperitoneal injection of pentobarbital solution, Somlethal® , J. A. Webster Inc., Sterling, Mass. The entire bladder was removed and immediately placed into Krebs Ringer bicarbonate solution (composition, mM: NaCl, 120; NaHCO3, 20; dextrose, 11; KCl, 4.7; CaCl2, 2.5; MgSO4, 1.5; KH2PO4, 1.2; K2EDTA, 0.01, equilibrated with 5% CO2/95% O2 pH 7.4 at 37° C.). Propranolol (0.004 mM) was included in all of the assays to block β-adrenoceptors. The trigonal and dome portions were discarded. Strips 3-5 millimeters (mm) wide and 20 mm long were prepared from the remaining tissue cut in a circular fashion. The mucosal layer was removed. One end was fixed to a stationary glass rod and the other to a Grass FT03 transducer at a basal preload of 1.0 g. Two parallel platinum electrodes were included in the stationary glass rod to provide field stimulation of 0.05 Hz, 0.5 milli-seconds at 20 volts. This low frequency stimulation produced a stable twitch response of 100-500 centigrams. Tissues were allowed to equilibrate for at least 60 minutes and primed with 80 mM KCl. A control concentration response curve (cumulative) was generated for each tissue using the potassium channel opener P1075 as the control agonist. […] After a 60 minute rinsing period, a concentration response curve (cumulative) was generated for the test agonist in the same fashion as that used for the control agonist P1075. The maximal efficacy of each compounds (expressed as % relative to P1075) is reported. The amount of agent necessary to cause 50% of the agent's maximal response (ED50) was calculated using “ALLFIT” (DeLean et al., Am. J. Physiol., 235, E97 (1980)), and agonist potencies were expressed as pD2 (the negative logarithm). Agonist potencies were also expressed as an index relative to P1075. The index was calculated by dividing the ED50 for P1075 by the ED50 for the test agonist in a give tissue. Each tissue was used for only one test agonist, and the indices obtained from each tissue were averaged to provide an average index of potency.

[2] = test system: primary cultured guinea-pig urinary bladder (GPB) cells; assay: Membrane hyperpolarization (MHP) assay, DiBAC(4)3 / FLIPR; type: cell-based; conditions: for Emax / Maximal Response (% P1075): maximal steady-state hyperpolarization, normalized to 10 μM P1075 = 100%; for Emax: read-out: Maximal Response (% P1075); for EC50: membrane hyperpolarization in GPB cells
Experimental: Compounds were evaluated for potassium channel opening activity using primary cultured guinea-pig urinary bladder (GPB) cells.
For the preparation of urinary bladder smooth muscle cells, urinary bladders were removed from male guinea-pigs (Hartley, Charles River, Wilmington, Mass.) weighing 300-400 g and placed in ice-cold Ca^2+-free Krebs solution (Composition, mM: KCl, 2.7; KH2PO4, 1.5; NaCl, 75; Na2HPO4, 9.6; Na2HPO4.7H2O, 8; MgSO4, 2; glucose, 5; HEPES, 10; pH 7.4). Cells were isolated by enzymatic dissociation as previously described with minor modifications in Klockner, U. and Isenberg, G., Pflugers Arch. 1985, 405, 329-339, hereby incorporated by reference. The bladder was cut into small sections and incubated in 5 mL of the Kreb's solution containing 1 mg/mL collagenase (Sigma, St. Louis, Mo.) and 0.2 mg/mL pronase (Calbiochem, La Jolla, Calif.) with continuous stirring in a cell incubator for 30 minutes. The mixture was then centrifuged at 1300×g for 5 minutes, and the pellet resuspended in Dulbecco's PBS (GIBCO, Gaithersburg, Md.) and recentrifuged to remove residual enzyme. The cell pellet was resuspended in 5 mL growth media (composition: Dulbecco's modified Eagle's medium supplemented with 10% fetal bovine serum, 100 units/mL penicillin, 100 units/mL streptomycin and […] amphotericin B) and further dissociated by pipetting the suspension through a flame-polished Pasteur pipette and passing it through a polypropylene mesh membrane (Spectrum, Houston, Tex.). The cell density was adjusted to 100,000 cells/mL by resuspension in growth media. Cells were plated in clear-bottomed black 96-well plates (Packard) for membrane potential studies at a density of 20,000 cells/well and maintained in a cell incubator with 90% air: 10% CO2 until confluent. Cells were confirmed to be of smooth muscle type by cytoskeletal staining using a monoclonal mouse anti human-α-smooth muscle actin (Biomeda, Foster City, Calif.).
Functional activity at potassium channels was measured by evaluating changes in membrane potential using the bis-oxonol dye DiBAC(4)3 (Molecular Probes) in a 96-well cell-based kinetic assay system, Fluorescent Imaging Plate Reader (FLIPR) (K. S. Schroeder et al., J. Biomed. Screen., v. 1 pp. 75-81 (1996)), hereby incorporated by reference. DiBAC(4)3 is an anionic potentiometric probe which partitions between cells and extracellular solution in a membrane potential-dependent manner. With increasing membrane potential (for example, K^+ depolarization), the probe fuither partitions into the cell; this is measured as an increase in fluorescence due to dye interaction with intracellular lipids and proteins. Conversely, decreasing membrane potential (hyperpolarization by potassium channel openers) evokes a decrease in fluorescence.
Confluent guinea-pig urinary bladder cells cultured in black clear-bottomed 96-well plates were rinsed twice with […] assay buffer (composition, mM: HEPES, 20; NaCl, 120; KCl, 2; CaCl2, 2; MgCl2, 1; glucose, 5; pH 7.4 at 25° C.) containing 5 μM DiBAC(4)3 and incubated with […] of the buffer in a cell incubator for 30 minutes at 37° C. to ensure dye distribution across the membrane. After recording the baseline fluorescence for 5 minutes, the reference or test compounds, prepared at 10 times the concentration in the assay buffer, were added directly to the wells. Changes in fluorescence were monitored for an additional 25 minutes. Hyperpolarization responses were corrected for any background noise and were normalized to the response observed with 10 μM of the reference compound P1075, N″-cyano-N-(tert-pentyl)-N′-(3-pyridinyl)guanidine, which was assigned as 100%. P1075 is a potent opener of smooth muscle KATP channels (Quast et al., Mol. Pharmacol., v. 43 pp. 474-481 (1993)) and was prepared using the procedures described in (Manley, J. Med. Chem. (1992) 35, 2327-2340), hereby incorporated by reference. […]

EC50 [1]	EC50 [2]	EC50 ([2]; Cavia porcellus)	SMILES	Index [1]	Efficacy (% P1075) [1]	Emax ([2]; Cavia porcellus)	pD2 [1]	Maximal Response (% P1075) [2]	effect on stimulated twitch / contractions of the bladder ([1]; P1075: concentration range 10^−9 to 10^−5 M, cumulative)
794 nM	–	–	CC1=C(C#N)C(c2ccc(F)c(Br)c2)c2c(cc[nH]c2=S)N1 (centres unmarked) [Example 35, 4-(3-bromo-4-fluorophenyl)-3-cyano-2-methyl-4,6-dihydro[1,6]naphthyridine-5(1H)-thione]	0.3068	77 % P1075	–	–	–	–
10.2 nM	–	–	CC1=C(C#N)C(c2ccc(F)c(Br)c2)c2c(ccn(C)c2=O)N1 (centres unmarked) [Example 7, 4-(3-bromo-4-fluorophenyl)-3-cyano-2,6-dimethyl-4,6-dihydro[1,6]naphthyridin-5(1H)-one]	2.826	100 % P1075	–	–	–	–
–	17 nM	–	CC1=C(C#N)C(c2ccc(F)c(Br)c2)c2c(cc[nH]c2=O)N1 (centres unmarked) [Example 5, 4-(3-bromo-4-fluorophenyl)-3-cyano-2-methyl-4,6-dihydro[1,6]naphthyridin-5(1H)-one]	1.2740	98 % P1075	114%	6.85	–	–
–	6 nM	–	CC1=C(C#N)C(c2ccc(F)c(Br)c2)c2c(ccnc2Cl)N1 (centres unmarked) [Example 34, 4-(3-bromo-4-fluorophenyl)-5-chloro-3-cyano-2-methyl-1,4-dihydro[1,6]naphthyridine]	0.2089	85 % P1075	–	6.14	90 % P1075	–
692 nM	–	100 nM	CC1=C(C#N)C(c2ccc(F)c(Br)c2)C2=C(CCNC2=O)N1 (centres unmarked) [Example 2, 4-(3-bromo-4-fluorophenyl)-3-cyano-2-methyl-4,6,7,8-tetrahydro[1,6]naphthyridin-5(1H)-one]	0.2653	60 % P1075	122%	–	–	–
275 nM	–	–	CC1=C(C#N)C(c2ccc(F)c(C(F)(F)F)c2)C2=C(CCOC2=O)N1 (centres unmarked) [Example 26, 4-[4-fluoro-3-(trifluoromethyl)phenyl]-3-cyano-2-methyl-1,4,7,8-tetrahydro-5H-pyrano[4,3-b]pyridin-5-one]	0.6715	98 % P1075	–	–	–	–
–	28 nM	–	CC1=C(C#N)C(c2ccc(F)c(Br)c2)c2c(ccnc2Cl)N1 (centres unmarked) [Example 33, 4-(3-bromo-4-fluorophenyl)-5-chloro-3-cyano-2-methyl-1,4-dihydro[1,6]naphthyridine]	0.0353	61 % P1075	–	5.31	65 % P1075	–
–	–	–	CCC(C)(C)NC(=NC#N)Nc1cccnc1 [Example P1075, N″-cyano-N-(tert-pentyl)-N′-(3-pyridinyl)guanidine, reference compound]	–	–	–	–	–	completely eliminated the stimulated twitch
1000 nM	–	–	COc1nccc2c1C(c1ccc(F)c(Br)c1)C(C#N)=C(C)N2 (centres unmarked) [Example 38, 4-(3-bromo-4-fluorophenyl)-3-cyano-2-methyl-5-methoxy-1,4-dihydro[1,6]naphthyridine]	0.2488	78 % P1075	–	–	–	–
–	1500 nM	–	CC1=C(C#N)C(c2ccc(F)c(Br)c2)c2c(cc[nH]c2=O)N1 (centres unmarked) [Example 6, 4-(3-bromo-4-fluorophenyl)-3-cyano-2-methyl-4,6-dihydro[1,6]naphthyridin-5(1H)-one]	0.0318	67 % P1075	–	4.89	102 % P1075	–
